# Measured values taken from the supplement of paper PMC10307832.
# What was measured:
# Assay in all cases: relative viability (nuclei count vs DMSO), 5 days (fraction); higher = more cells survive
# EHT 1864 = compound: C1COCCN1CC2=CC(=O)C(=CO2)OCCCCCSC3=C4C=CC(=CC4=NC=C3)C(F)(F)F [EHT 1864]
# Outline: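 MetaXpress counted nuclei in 4× images of lung cancer cell lines that had been fixed, permeabilised and Hoechst-stained in one step. Before that, cells in 1536-well plates were kept overnight at 37 °C, pinned with five √10-spaced library-drug doses on vehicle-anchored plates, and cultured 5 days without medium change. Viability takes treated-well nuclei over vehicle-well nuclei and uses the median across plates. Plates were accepted only at control CV below 25% and at least one doubling.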
# EHT 1864 + Foretinib = compound: C1COCCN1CC2=CC(=O)C(=CO2)OCCCCCSC3=C4C=CC(=CC4=NC=C3)C(F)(F)F [EHT 1864] + COc1cc2c(Oc3ccc(NC(=O)C4(C(=O)Nc5ccc(F)cc5)CC4)cc3F)ccnc2cc1OCCCN1CCOCC1 [Foretinib] (partner 0.25 µM)
# Outline: (§1)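 A single step with final 0.05% Triton X-100, 1% formaldehyde and 1 ug/ml Hoechst fixed the cells and stained nuclei 5 days after treatment. Lung cancer cell lines in 1536-well plates had been treated by pin tool the day after seeding with one drug alone or a fixed anchor-drug dose plus five library-drug doses (not always all listed) in √10 steps, and nuclei were counted on 4× images. Relative viability is the ratio of nuclei in treated wells to nuclei in vehicle wells, taken as the median of duplicate plates.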
# EHT 1864 + OSI-027 = compound: C1COCCN1CC2=CC(=O)C(=CO2)OCCCCCSC3=C4C=CC(=CC4=NC=C3)C(F)(F)F [EHT 1864] + COc1cccc2cc(-c3nc([C@H]4CC[C@H](C(=O)O)CC4)n4ncnc(N)c34)[nH]c12 [OSI-027] (partner 0.5 µM)
# Outline: as §1
# EHT 1864 + Palbociclib = compound: C1COCCN1CC2=CC(=O)C(=CO2)OCCCCCSC3=C4C=CC(=CC4=NC=C3)C(F)(F)F [EHT 1864] + CC(=O)c1c(C)c2cnc(Nc3ccc(N4CCNCC4)cn3)nc2n(C2CCCC2)c1=O [Palbociclib] (partner 0.5 µM)
# Outline: as §1
Cell Line,relative viability (EHT 1864; 0.04 µM),relative viability (EHT 1864; 0.1265 µM),relative viability (EHT 1864; 0.4 µM),relative viability (EHT 1864; 1.265 µM),relative viability (EHT 1864; 4 µM),relative viability (EHT 1864 + Foretinib; first compound 0.04 µM),relative viability (EHT 1864 + Foretinib; first compound 0.1265 µM),relative viability (EHT 1864 + Foretinib; first compound 0.4 µM),relative viability (EHT 1864 + Foretinib; first compound 1.265 µM),relative viability (EHT 1864 + Foretinib; first compound 4 µM),relative viability (EHT 1864 + OSI-027; first compound 0.04 µM),relative viability (EHT 1864 + OSI-027; first compound 0.1265 µM),relative viability (EHT 1864 + OSI-027; first compound 0.4 µM),relative viability (EHT 1864 + OSI-027; first compound 1.265 µM),relative viability (EHT 1864 + OSI-027; first compound 4 µM),relative viability (EHT 1864 + Palbociclib; first compound 0.04 µM),relative viability (EHT 1864 + Palbociclib; first compound 0.1265 µM),relative viability (EHT 1864 + Palbociclib; first compound 0.4 µM),relative viability (EHT 1864 + Palbociclib; first compound 1.265 µM),relative viability (EHT 1864 + Palbociclib; first compound 4 µM)
NCI-H2405,1.07,1,0.994,0.821,0.994,1.05,1.05,1.07,0.999,1.13,0.655,0.647,0.642,0.535,0.714,0.536,0.497,0.469,0.5,0.538
NCI-H3122,0.99,0.98,0.994,0.999,0.945,0.938,0.983,0.961,0.982,0.885,0.922,0.594,0.952,0.896,0.956,0.172,0.21,0.211,0.203,0.201
PC-3 [JPC-3],1.1,0.908,1.02,1.05,0.953,1.04,0.887,0.943,0.968,0.936,0.743,0.575,0.742,0.732,0.646,0.549,0.554,0.539,0.545,0.57
PC-14,1.01,0.823,1.04,1.03,0.939,0.997,0.906,0.994,0.932,0.878,0.813,0.75,0.814,1.05,0.88,0.489,0.446,0.524,0.582,0.471
RERF-LC-KJ,1.02,0.928,0.936,0.994,0.956,1.01,0.838,0.834,0.896,0.893,0.621,0.539,0.52,0.575,0.541,1.09,0.989,0.929,1.02,1.11
SK-LU-1,1.07,0.93,1.01,0.993,0.939,0.843,0.772,0.779,0.775,0.746,0.357,0.262,0.32,0.33,0.312,0.474,0.323,0.395,0.37,0.352
SK-MES-1,0.97,0.943,1.02,0.967,0.974,0.951,0.866,1.06,1.11,0.799,0.628,0.542,0.572,0.592,0.562,0.379,0.3,0.356,0.301,0.342
SW 1573,1.03,0.817,1.01,0.931,0.902,0.805,0.722,0.816,0.746,0.896,0.592,0.54,0.605,0.482,0.55,0.299,,0.481,0.416,0.317
UMC-11,1,0.804,0.901,0.985,1.17,0.935,0.962,,1.07,1.11,0.463,0.366,,0.483,0.47,0.339,0.266,0.281,0.343,0.31
